Source: US20050096224A1 (priority 2002, published 2005)

Test system: G. pallida
Test: Test A: control of G. pallida by oxamyl on potted potato plants
Format: in vivo, Globodera pallida
Conditions: serial small doses at 4-day, 7-day or 14-day intervals over the hatching period vs equivalent dose (3.5, 4.5 or 5.5 kg ai/ha) in one application at planting; 70 days; initial 10 or 50 eggs/g of soil; potato in pots
Description: G. pallida is the more pernicious pest of potatoes. Studies have been conducted with Composition A comprising oxamyl as described above.
The test units consisted of large diameter pots each containing one potato plant, planted in soil amended with eggs of G. pallida at either 24 cysts per pot (estimated to be about 10 eggs/g of soil) or 120 cysts per pot (estimated to be about 50 eggs/g of soil). These pest burdens represent a level of infestation that would require treatment in order to prevent crop damage and potential multiplication of the pest (10 eggs/g of soil) and substantial yield loss (50 eggs/g of soil).
Composition A was introduced into the test units diluted in a constant volume of water. […] The dose at each application was applied in the same volume of water and in equal incremental quantities. […] The number of cysts attached to the roots per gram of root mass (washed free of soil) was determined at 70 days (10 weeks) after commencement of the trial. […]

## CNC(=O)ON=C(SC)C(=O)N(C)C [oxamyl, N,N-dimethyl-2-methylcarbamoyloxyimino-2-(methylthio)acetamide]
  control of cyst production by G. pallida (number of cysts attached to the roots per gram of root mass): superior control
